For 25 compounds, IC50 results are on record in patent publication US20230167127A1, “COMPOUNDS AND THEIR USE IN THE TREATMENT OF BACTERIAL INFECTION” (Hoffmann-La Roche Inc., priority 2020, published 2023).

Molecules are shown by their SMILES.

The assay has as its system Escherichia coli ATCC 25922. Briefly: 50% growth inhibitory concentration (IC50) determination, Iso-Sensitest broth dilution. The format is cell-based. The settings on record: Escherichia coli, ATCC25922, 16 h, strain Escherichia coli ATCC 25922; 10-point broth dilution, optical density at 600 nm over 16 h; read-out: Escherichia coli growth inhibition IC50. The method, boiled down: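 Growth was tracked as optical density at 600 nm every 20 minutes for 16 h at 35±2° C. Compounds from DMSO stocks were serially diluted twofold over 10 points (e.g. 50–0.097 μM final) in Iso-Sensitest broth. Inhibition computed in log-phase growth to give IC50.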
`Cc1ncc(F)c2c1CC(CN[C@H]1C[C@@H](C3CN(c4cnc5c(n4)NC(=O)CO5)C(=O)O3)C1)C2` (stereo partly shown) [Example 362]: the IC50 was 157 nM.

Consider `Cc1nc2c(c3c1CC(CNCCC1CN(c4ccc5c(n4)NC(=O)CO5)C(=O)O1)C3)CCN2` (stereo not shown) [Example 423, 6-[5-[2-[(8-Methyl-5,7-diazatricyclo[7.3.0.0^2.6]dodeca-1,6,8-trien-11-yl)methylamino]ethyl]-2-oxo-1,3-oxazolidin-3-yl]-4H-pyrido[3,2-b][1,4]oxazin-3-one], for which the IC50 was determined as 468 nM. With `NC1c2cccc(Cl)c2CC1CNCCCC1CN(c2ccc3c(n2)NC(=O)CO3)C(=O)O1` (racemic) [Example 227, 6-[2-Oxo-5-[3-[[rac-1,2-trans-1-amino-4-chloro-2,3-dihydro-1H-inden-2-yl]methylamino]propyl]-1,3-oxazolidin-3-yl]-4H-pyrido[3,2-b][1,4]oxazin-3-one], the IC50 is 132 nM. On to `COc1nc(C)c2c(c1C)CC(CNCCC1CN(c3ccc4c(n3)NC(=O)CO4)C(=O)O1)C2` (stereo not shown) [Example 106, 6-[5-[2-[(3-methoxy-1,4-dimethyl-6,7-dihydro-5H-cyclopenta[c]pyridin-6-yl)methylamino]ethyl]-2-oxo-1,3-oxazolidin-3-yl]-4H-pyrido[3,2-b][1,4]oxazin-3-one], for which the IC50 came out at 259 nM. `Cc1nc(C)c2c(c1C)CC(CNCCC1CN(c3cnc4c(n3)NC(=O)CO4)C(=O)O1)C2` (stereo not shown) [Example 269, 6-[2-Oxo-5-[2-[(1,3,4-trimethyl-6,7-dihydro-5H-cyclopenta[c]pyridin-6-yl)methylamino]ethyl]-1,3-oxazolidin-3-yl]-4H-pyrazino[2,3-b][1,4]oxazin-3-one]: the IC50 is below 97.7 nM. As for `NC1c2cccc(Cl)c2CC1CNCCc1nn(-c2ccc3c(n2)NC(=O)CO3)c(=O)o1` (racemic) [Example 153, 6-[5-[2-[(rac-1,2-trans-1-amino-4-chloro-2,3-dihydro-1H-inden-2-yl)methylamino]ethyl]-2-oxo-1,3,4-oxadiazol-3-yl]-4H-pyrido[3,2-b][1,4]oxazin-3-one], the figure is 198 nM; as for `Cc1ncc(F)c2c1CC(CN1CCC3(CC1)CN(c1ccc4c(n1)NC(=O)CO4)C(=O)O3)C2` (stereo not shown) [Example 72, 6-[8-[(4-fluoro-1-methyl-6,7-dihydro-5H-cyclopenta[c]pyridin-6-yl)methyl]-2-oxo-1-oxa-3,8-diazaspiro[4.5]decan-3-yl]-4H-pyrido[3,2-b][1,4]oxazin-3-one], 69.7 nM; as for `Cc1nccc2c1CC(CNCCc1cn(-c3cnc4c(n3)NC(=O)CO4)c(=O)o1)C2` (stereo not shown) [Example 371, 6-[5-[2-[(1-methyl-6,7-dihydro-5H-cyclopenta[c]pyridin-6-yl)methylamino]ethyl]-2-oxo-1,3-oxazol-3-yl]-4H-pyrazino[2,3-b][1,4]oxazin-3-one], below 97.7 nM. For `NC1c2cccc(F)c2CC1CNCCC1CN(c2ccc3c(n2)NC(=O)CO3)C(=O)O1` (racemic) [Example 163, 6-[5-[2-[(rac-1,2-trans-1-amino-4-fluoro-2,3-dihydro-1H-inden-2-yl)methylamino]ethyl]-2-oxo-1,3-oxazolidin-3-yl]-4H-pyrido[3,2-b][1,4]oxazin-3-one], the IC50 was found to be 131 nM.

For `N#Cc1nccc2c1CC(CN[C@H]1C[C@@]3(CN(c4ccc5c(n4)NC(=O)CO5)C(=O)O3)C1)C2` (stereo partly drawn) [Example 104, 6-[[[2,4-trans-6-oxo-7-(3-oxo-4H-pyrido[3,2-b][1,4]oxazin-6-yl)-5-oxa-7-azaspiro[3.4]octan-2-yl]amino]methyl]-6.7-dihydro-5H-cyclopenta[c]pyridine-1-carbonitrile], the half-maximal inhibitory concentration (IC50) came to 99.4 nM. Turning to `Cc1nc(OCC2CNC(=O)CO2)c(C)c2c1CC(CNCCC1CN(c3ccc4c(n3)NC(=O)CO4)C(=O)O1)C2` (stereo not shown) [Example 101, 6-[5-[2-[[1,4-dimethyl-3-[(5-oxomorpholin-2-yl)methoxy]-6,7-dihydro-5H-cyclopenta[c]pyridin-6-yl]methylamino]ethyl]-2-oxo-1,3-oxazolidin-3-yl]-4H-pyrido[3,2-b][1,4]oxazin-3-one], the half-maximal inhibitory concentration (IC50) stood at 1390 nM. As to `NC1(COc2cc(F)c3c(c2F)CC(CNCCC2CN(c4ccc5c(n4)NC(=O)CO5)C(=O)O2)C3)CC1` (stereo not shown) [Example 409, 6-[5-[2-[[5-[(1-aminocyclopropyl)methoxy]-4,7-difluoro-2,3-dihydro-1H-inden-2-yl]methylamino]ethyl]-2-oxo-1,3-oxazolidin-3-yl]-4H-pyrido[3,2-b][1,4]oxazin-3-one; formic acid], the concentration for half-maximal inhibition (IC50) was below 97.7 nM. The same measure for `NC1c2cccc(Cl)c2CC1CN[C@H]1C[C@@]2(CN(c3ccc4c(n3)NC(=O)CO4)C(=O)O2)C1` (mixture of isomers) [Example 211, 2,4-trans-6-[6-oxo-2-[[rac-1,2-trans-1-amino-4-chloro-2,3-dihydro-1H-inden-2-yl]methylamino]-5-oxa-7-azaspiro[3.4]octan-7-yl]-4H-pyrido[3,2-b][1,4]oxazin-3-one]: below 97.7 nM; for `CN(CCOc1cc(F)c2c(c1)CC(CNCCC1CN(c3cnc4c(n3)NC(=O)CO4)C(=O)O1)C2)S(C)(=O)=O` (stereo not shown) [Example 325, N-[2-[[7-fluoro-2-[[2-[2-oxo-3-(3-oxo-4H-pyrazino[2,3-b][1,4]oxazin-6-yl)-1,3-oxazolidin-5-yl]ethylamino]methyl]-2,3-dihydro-1H-inden-5-yl]oxy]ethyl]-N-methylmethanesulfonamide]: 281 nM; for `N#Cc1cccc2c1CC(NCC(O)CC1CN(c3cnc4c(n3)NC(=O)CO4)C(=O)O1)C2` (single isomer, unassigned; isomer a) [Example 81, 2-[[2-hydroxy-3-[2-oxo-3-(3-oxo-4H-pyrazino[2,3-b][1,4]oxazin-6-yl)-1,3-oxazolidin-5-yl]propyl]amino]-2,3-dihydro-1H-indene-4-carbonitrile, Isomer A; formic acid]: 164 nM. As for `O=C1COc2ccc(N3CC(CCNCC4Cc5cccc(Cl)c5C4)OC3=O)nc2N1` (stereo not shown) [Example 1, 6-[5-[2-[(4-Chloro-2,3-dihydro-1H-inden-2-yl)methylamino]ethyl]-2-oxo-1,3-oxazolidin-3-yl]-4H-pyrido[3,2-b][1,4]oxazin-3-one; formic acid], the figure is below 97.7 nM. `N#Cc1cccc2c1CC(CNCCC1CN(c3ncc4c(n3)NC(=O)CO4)C(=O)O1)C2` (stereo not shown) [Example 289, 2-[[2-[2-oxo-3-(7-oxo-8H-pyrimido [5,4-b] [1,4]oxazin-2-yl)-1,3-oxazolidin-5-yl]ethylamino]methyl]-2,3-dihydro-1H-indene-4-carbonitrile]: the IC50 is below 97.7 nM. The same measure for `NC1(CCNCC2CN(c3ccc4c(n3)NC(=O)CO4)C(=O)O2)Cc2cccc(Cl)c2C1` (stereo not shown) [Example 142, 6-[5-[[2-(2-amino-4-chloro-1,3-dihydroinden-2-yl)ethylamino]methyl]-2-oxo-1,3-oxazolidin-3-yl]-4H-pyrido[3,2-b][1,4]oxazin-3-one; formic acid]: below 97.7 nM; for `Cc1c(OCC2CNC(=O)CN2)nc(C#N)c2c1CC(CN1CCC3(CC1)CN(c1ccc4c(n1)NC(=O)CO4)C(=O)O3)C2` (stereo not shown) [Example 220, 4-methyl-6-((2-oxo-3-(3-oxo-3,4-dihydro-2H-pyrido[3,2-b][1,4]oxazin-6-yl)-1-oxa-3,8-diazaspiro[4.5]decan-8-yl)methyl)-3-((5-oxopiperazin-2-yl)methoxy)-6,7-dihydro-5H-cyclopenta[c]pyridine-1-carbonitrile]: 319 nM. In the case of `NC1c2cccc(Cl)c2CC1CN1CC(C2CN(c3cnc4c(n3)NC(=O)CO4)C(=O)O2)C1` (racemic) [Example 205, 6-[5-[1-[(rac-1,2-trans-1-amino-4-chloro-2,3-dihydro-1H-inden-2-yl)methyl]azetidin-3-yl]-2-oxo-1,3-oxazolidin-3-yl]-4H-pyrazino[2,3-b][1,4]oxazin-3-one], the IC50 turned out to be 123 nM. Consider `Cc1ncc(F)c2c1CC(NC(C)CCC1CN(c3cnc4c(n3)NC(=O)CO4)C(=O)O1)C2` (single isomer, unassigned; isomer a) [Example 333, 6-[5-[3-[(4-fluoro-1-methy1-6,7-dihydro-5H-cyclopenta[c]pyridin-6-yl)amino]butyl]-2-oxo-1,3-oxazolidin-3-yl]-4H-pyrazino[2,3-b][1,4]oxazin-3-one, Isomer A], for which the IC50 is 265 nM. As for `N#Cc1cc(OCC2CCN2)cc2c1CC(CNCCC1CN(c3ccc4c(n3)NC(=O)CO4)C(=O)O1)C2` (stereo not shown) [Example 187, 6-(azetidin-2-ylmethoxy)-2-[[2-[2-oxo-3-(3-oxo-4H-pyrido[3,2-b][1,4]oxazin-6-yl)-1,3-oxazolidin-5-yl]ethylamino]methyl]-2,3-dihydro-1H-indene-4-carbonitrile], the figure is 121 nM. As for `Cc1c(OCC2(N)CC2)nc(-c2nccs2)c2c1CC(CNCCC1CN(c3ccc4c(n3)NC(=O)CO4)C(=O)O1)C2` (stereo not shown) [Example 218, 6-[5-[2-[[3-[(1-aminocyclopropyl)methoxy]-4-methyl-1-(1,3-thiazol-2-yl)-6,7-dihydro-5H-cyclopenta[c]pyridin-6-yl]methylamino]ethyl]-2-oxo-1,3-oxazolidin-3-yl]-4H-pyrido[3,2-b][1,4]oxazin-3-one], the figure is below 97.7 nM; as for `N#Cc1cccc2c1CC(CN[C@H]1CC[C@H](C3CN(c4ccc5c(n4)NC(=O)CO5)C(=O)O3)CC1)C2` (stereo partly drawn) [Example 100, 2-[[[trans-4-[2-oxo-3-(3-oxo-4H-pyrido[3,2-b][1,4]oxazin-6-yl)-1,3-oxazolidin-5-yl]cyclohexyl]amino]methyl]-2,3-dihydro-1H-indene-4-carbonitrile; formic acid], 1260 nM; as for `N#Cc1c(OCCN2CCNCC2)ccc2c1CC(CNCCC1CN(c3ccc4c(n3)NC(=O)CO4)C(=O)O1)C2` (stereo not shown) [Example 143, 2-[[2-[2-oxo-3-(3-oxo-4H-pyrido[3,2-b][1,4]oxazin-6-yl)-1,3-oxazolidin-5-yl]ethylamino]methyl]-5-(2-piperazin-1-ylethoxy)-2,3-dihydro-1H-indene-4-carbonitrile; formic acid], 833 nM.
